Reference: US20040176361A1, “Fused heterocyclic compound and medicinal use thereof” (priority 2001, published 2004)

Row | SMILES | melting point
1 | Cc1cccc2c(=O)[nH]c(CC3CN4CCC3CC4)nc12 (centres unmarked) | 187 to 188 °C (dec.)
2 | CC1CN(c2cc3ccccc3c(=O)[nH]2)CCN1 (centres unmarked) | 164 to 167 °C
3 | CC1CN(c2cc3ccccc3c(=O)[nH]2)CC(C)N1 (centres unmarked) | 208 to 210 °C
4 | CN1CCC(c2cc3ncccc3c(=O)[nH]2)CC1 | > 240 °C (dec.)
5 | Cc1c(C2CCN(C)CC2)[nH]c(=O)c2ccccc12 | 202 to 204 °C
6 | CN1CCCC(c2cc3ccccc3c(=O)[nH]2)C1 (centres unmarked) | 155 to 156 °C
7 | Cc1ccc2c(=O)[nH]c(C3CCN(C)CC3)cc2c1 | 236 to 238 °C
8 | Cc1ccc2cc(C3CCN(C)CC3)[nH]c(=O)c2c1 | 239 to 241 °C
9 | Cc1cccc2cc(C3CCN(C)CC3)[nH]c(=O)c12 | 200 to 202 °C
10 | CN1CCC(c2cc3ccc(O)cc3c(=O)[nH]2)CC1.Cl | 284 to 286 °C
11 | Cc1ccc2c(=O)[nH]c(N3CCN(C)CC3)cc2c1 | 242 to 243 °C (dec.)
12 | Cc1cccc2cc(N3CCN(C)CC3)[nH]c(=O)c12 | 224 to 225 °C (dec.)
13 | Br.O=c1[nH]c(C2CCNCC2)cc2ccccc12 | > 270 °C
14 | Br.O=c1[nH]c(C2CCNCC2)c(-c2ccccc2)c2ccccc12 | > 270 °C
15 | CN(C)C1CCN(c2cc3ccccc3c(=O)[nH]2)C1 (centres unmarked) [Example 2, 3-(3-dimethylaminopyrrolidine-1-yl)-2H-isoquinolin-1-one] | 233 to 234 °C (dec.)
16 | CCCN1CCN(c2cc3ccccc3c(=O)[nH]2)CC1 [Example 7, 3-(4-propylpiperazine-1-yl)-2H-isoquinolin-1-one] | 208 to 209 °C (dec.)
17 | CS(=O)(=O)N1CCN(c2cc3ccccc3c(=O)[nH]2)CC1 [Example 8, 3-(4-methanesulfonylpiperazin-1-yl)-2H-isoquinolin-1-one] | 257 to 259 °C (dec.)
18 | CCOC(=O)N1CCN(c2cc3ccccc3c(=O)[nH]2)CC1 [Example 9, 3-(4-ethoxycarbonylpiperazin-1-yl)-2H-isoquinolin-1-one] | 191 to 192 °C (dec.)
19 | CN1CCCN(c2cc3ccccc3c(=O)[nH]2)CC1 [Example 10, 3-(4-methylhomopiperazin-1-yl)-2H-isoquinolin-1-one] | 171 to 172 °C (dec.)
20 | CN(C)C1CCN(c2cc3ccc(Br)cc3c(=O)[nH]2)CC1 [Example 31, 7-bromo-3-(4-dimethylaminopiperidin-1-yl)-2H-isoquinolin-1-one] | 227 to 228 °C (dec.)
21 | CN(C)C1CCN(c2cc3c(Br)cccc3c(=O)[nH]2)CC1 [Example 32, 5-bromo-3-(4-dimethylaminopiperidin-1-yl)-2H-isoquinolin-1-one] | 214 to 215 °C (dec.)

Row | SMILES | melting point
22 | O=c1[nH]c(N2CCN(CCO)CC2)cc2c(F)cccc12 [Example 33, 5-fluoro-3-(4-(2-hydroxyethyl)piperazin-1-yl)-2H-isoquinolin-1-one] | 207 to 208 °C (dec.)
23 | Cc1ccc2c(=O)[nH]c(N3CCN(CCO)CC3)cc2c1 [Example 35, 3-(4-(2-hydroxyethyl)piperazin-1-yl)-6-methyl-2H-isoquinolin-1-one] | 236 to 237 °C (dec.)
24 | Cc1cccc2cc(N3CCN(CCO)CC3)[nH]c(=O)c12 [Example 41, 3-[4-(2-hydroxyethyl)piperazin-1-yl]-8-methyl-2H-isoquinolin-1-one] | 209 to 210 °C (dec.)
25 | Cc1cccc2c(=O)[nH]c(N3CCN(CCCCN4CCN(C)CC4)CC3)cc12 [Example 75, 5-methyl-3-(4-(4-(4-methylpiperazin-1-yl)butyl)piperazin-1-yl)-2H-isoquinolin-1-one] | 202 to 203 °C (dec.)
26 | O=c1[nH]c(N2CCN(CCCCN3CCCCC3)CC2)cc2ccc(Br)cc12 [Example 76, 7-bromo-3-{4-[4-(piperidin-1-yl)butyl]piperazin-1-yl}-2H-isoquinolin-1-one] | 211 to 212 °C (dec.)
27 | O=c1[nH]c(N2CCN(CCCCN3CCCCC3)CC2)cc2c(Cl)cccc12 [Example 77, 5-chloro-3-{4-[4-(piperidin-1-yl)butyl]piperazin-1-yl}-2H-isoquinolin-1-one] | 172 to 173 °C (dec.)
28 | O=c1[nH]c(N2CCN(CCCCN3CCCCC3)CC2)cc2c(Br)cccc12 [Example 78, 5-bromo-3-{4-[4-(piperidin-1-yl)butyl]piperazin-1-yl}-2H-isoquinolin-1-one] | 165 to 166 °C (dec.)
29 | CN1CCN(C(=O)c2cc3ccccc3c(=O)[nH]2)CC1 [Example 83, 3-((4-methylpiperazin-1-yl)carbonyl)-2H-isoquinolin-1-one] | 170 to 172 °C
30 | COc1ccc(-c2c(C3CCN(C)CC3)[nH]c(=O)c3ccccc23)cc1 [Example 99, 4-(4-methoxyphenyl)-3-(1-methylpiperidin-4-yl)-2H-isoquinolin-1-one] | 209 to 211 °C
31 | CN1CCC(c2[nH]c(=O)c3ccccc3c2-c2ccc(Cl)cc2)CC1 [Example 100, 4-(4-chlorophenyl)-3-(1-methylpiperidin-4-yl)-2H-isoquinolin-1-one] | 254 to 256 °C
32 | CN1CCN(N2CC(=O)c3c(ccc4ccccc34)C2)CC1 [Example 114, 3-(4-methylpiperazin-1-yl)-2H-benz[f]isoquinolin-1-one] | 253 to 254 °C (dec.)
33 | CN(C)C1CCN(N2CC(=O)c3c(ccc4ccccc34)C2)CC1 [Example 115, 3-(4-dimethylaminopiperidin-1-yl)-2H-benz[f]isoquinolin-1-one] | 232 to 233 °C (dec.)
34 | Cc1cccc2c(=O)[nH]c(C3CCC(N(C)C)CC3)nc12 (centres unmarked) [Example 137, 8-methyl-2-(4-dimethylaminocyclohexan-1-yl)-3H-quinazolin-4-one] | 181 to 183 °C (dec.)
35 | CN(C)C1CCC(c2cc3ccccc3c(=O)[nH]2)CC1 (centres unmarked) [Example 147, 3-(4-(dimethylamino)cyclohexan-1-yl)-2H-isoquinolin-1-one] | 256 to 258 °C
36 | CN1CCN(CCCc2cc3ccccc3c(=O)[nH]2)CC1 [Example 148, 3-(3-(4-methylpiperazin-1-yl)propyl)-2H-isoquinolin-1-one] | 120 to 122 °C
37 | CN1CCN(c2cc3ccccc3c(=O)[nH]2)[C@@H](CO)C1 [Example 151, (R)-3-(2-hydroxymethyl-4-methylpiperazin-1-yl)-2H-isoquinolin-1-one] | 172 to 174 °C
38 | CN1CCN(c2cc3ccccc3c(=O)[nH]2)[C@H](CO)C1 [Example 152, (S)-3-(2-hydroxymethyl-4-methylpiperazin-1-yl)-2H-isoquinolin-1-one] | 169 to 171 °C
39 | CCOC(=O)C1CN(c2cc3ccccc3c(=O)[nH]2)CCN1C (centres unmarked) [Example 154, 3-(3-ethoxycarbonyl-4-methylpiperazin-1-yl)-2H-isoquinolin-1-one] | 105 to 109 °C
40 | CN1CCC(C2Cc3ccccc3C(=O)N2)CC1 (centres unmarked) [Example 158, 3-(1-methylpiperidin-4-yl)-3,4-dihydro-2H-isoquinolin-1-one] | 139 to 141 °C
41 | Cc1ccc(-c2c(C3CCN(C)CC3)[nH]c(=O)c3ccccc23)cc1 [Example 163, 4-(4-methylphenyl)-3-(1-methylpiperidin-4-yl)-2H-isoquinolin-1-one] | 244 to 246 °C
